Reference: patent US9975860B2, “Anti-angiogenic compounds” (UNIVERSITY COLLEGE DUBLIN—NATIONAL UNIVERSITY OF IRELAND, …, priority 2014, dated 2018)

How the values were obtained:
Assay type in all cases: cell-based, human
[1] = test system: OE33R radioresistant oesophageal adenocarcinoma cells; assay: Seahorse ECAR (glycolysis) in OE33R; settings: 10 μM, 24 hours
Method: (§1) OE33P radiosensitive oesophageal adenocarcinoma cells and OE33R radioresistant oesophageal adenocarcinoma cells were used to test the effects of the compound 4 on glycolysis. Cells were maintained in RPMI media supplemented with 10% foetal calf serum, penicillin (100 U/ml) and streptomycin (100 μg/ml). A total of 11,000 cells (OE33P) or 13,000 cells (OE33R), in 100 μl media, were seeded per well in 24 well plates and left to incubate for 24 hours, with an additional 150 μl media added after 5 hours. The media was replaced with solutions containing 10 μM of compound 4 or the equivalent volume of DMSO vehicle control. After 24 hours of treatment, media was replaced with modified DMEM supplemented with 0.5 mM glucose. Rates of glycolysis were determined using Seahorse Biosciences metabolism technology. The media was disposed and the cells washed with PBS. The cells were fixed with 1% glutaraldehyde for 15 minutes and then stained with crystal violet for 30 minutes. The plates were blotted and dried overnight. The cells were resuspended with 1% TritonX-100 and shaken for 15 minutes. The absorbance was read on a spectrophotometer at 595 nm Rates of glycolysis were then normalised to cell number.

[2] = test system: HT29-LUC radioresistant colorectal adenocarcinoma cells; assay: Seahorse ECAR (glycolysis) in HT29-LUC; settings: 10 μM, 24 hours
Method: as §1, with “HT29-LUC” for “OE33P radiosensitive oesophageal adenocarcinoma cells and OE33R”, “colorectal” for “oesophageal”, “of” for “of the”, “McCoy's 5A” for “RPMI”, “serum.” for “serum, penicillin (100 U/ml) and streptomycin (100 μg/ml).”, “20,000 cells,” for “11,000 cells (OE33P) or 13,000 cells (OE33R),”

[3] = test system: OE33R radioresistant oesophageal adenocarcinoma cells; assay: Seahorse OCR (oxidative phosphorylation) in OE33R; settings: 10 μM, 24 hours, p<0.05
Method: as §1, with “radiosensitive” for “radiosensitive oesophageal adenocarcinoma cells”, “oxidative phosphorylation.” for “glycolysis.”, “11,000 OE33P” for “11,000”, “and” for “(OE33P) or”, “OE33R cells,” for “cells (OE33R),”, “oxidative phosphorylation” for “glycolysis”

PARP1 = assay: qPCR DNA repair gene expression in OE33R: PARP1; settings: 10 μM, 24 hours
Method: OE33P radiosensitive oesophageal adenocarcinoma cells and OE33R radioresistant oesophageal adenocarcinoma cells were used to test the effects of the compound 4 on DNA repair gene expression. Cells were maintained in RPMI media supplemented with 10% foetal calf serum, penicillin (100 U/ml) and streptomycin (100 μg/ml). A total of 300,000 cells, in 2 ml media, were seeded per well in 6 well plates and left to incubate for 24 hours. The media was replaced with solutions containing 10 μM of compound 4 or the equivalent volume of DMSO vehicle control. After 24 hours of treatment, RNA was extracted from the cells and converted to cDNA. qPCR was then conducted and expression of MMS19, SMUG1 PARP1 and MLH1 was quantified, […]

MLH1 = assay: qPCR DNA repair gene expression in HT29-LUC: MLH1; settings: 10 μM, 24 hours, p<0.01
Method: HT29-LUC radioresistant colorectal adenocarcinoma cells were used to test the effects of the compound 4 on DNA repair gene expression. Cells were maintained in McCoy's 5A media supplemented with 10% foetal calf serum. A total of 300,000 cells, in 2 ml media, were seeded per well in 6 well plates and left to incubate for 24 hours. The media was replaced with solutions containing 10 μM of compound 4 or the equivalent volume of DMSO vehicle control. After 24 hours of treatment, RNA was extracted from the cells and converted to cDNA. qPCR was then conducted.

[4] = test system: HT29-LUC radioresistant colorectal adenocarcinoma cells; assay: Seahorse OCR (oxidative phosphorylation) in HT29-LUC; settings: 10 μM, 24 hours, p<0.01
Method: HT29-LUC radioresistant colorectal adenocarcinoma cells were used to test the effects of the compound 4 on oxidative phosphorylation. Cells were maintained in McCoy's 5A media supplemented with 10% foetal calf serum. A total of 20,000 cells, in 100 μl media, were seeded per well in 24 well plates and left to incubate for 24 hours, with an additional 150 μl media added after 5 hours. The media was replaced with solutions containing 10 μM of compound 4 or the equivalent volume of DMSO vehicle control. After 24 hours of treatment, media was replaced with modified DMEM supplemented with 0.5 mM glucose. Rates of oxidative phosphorylation were determined using Seahorse Biosciences metabolism technology. The media was disposed and the cells washed with PBS. The cells were fixed with 1% glutaraldehyde for 15 minutes and then stained with crystal violet for 30 minutes. The plates were blotted and dried overnight. The cells were resuspended with 1% TritonX-100 and shaken for 15 minutes. The absorbance was read on a spectrophotometer at 595 nm Rates of oxidative phosphorylation were then normalised to cell number.

[5] = test system: OE33P radiosensitive oesophageal adenocarcinoma cells; assay: Seahorse ECAR (glycolysis) in OE33P; settings: 10 μM, 24 hours
Method: as §1

Cl.Oc1ccccc1/C=C/c1cnccn1 [Compound 4, (E)-2-[2-(Pyrazin-2-yl)vinyl]phenol hydrochloride]
extracellular acidification rate (ECAR), a measure of glycolysis [1]: does not significantly reduce extraceullar acidification rate
extracellular acidification rate (ECAR), a measure of glycolysis [2]: does not significantly reduce extraceullar acidification rate
oxygen consumption rate (OCR), a measure of oxidative phosphorylation [3]: does significantly reduce OCR
expression of PARP1 (qPCR) (PARP1): not significantly different to control
expression of MLH1 (qPCR) (MLH1): significantly reduces the expression of MLH1
oxygen consumption rate (OCR), a measure of oxidative phosphorylation [4]: significantly reduces oxygen consumption rate
extracellular acidification rate (ECAR), a measure of glycolysis [5]: does not significantly reduce extraceullar acidification rate
